Like-named read-outs stand apart in the source and are kept apart here.
Columns and labels:
HeLa cells = experiment: High content autophagy assay (LC3 immunostaining); assay type: cell-based, human; settings: 10µM (Rapamycin 5.5 µM), 4 hr
Experimental: HeLa cells were treated with the compounds at a final concentration of 10µM, incubated for 4 hr, fixed with 3.7% PFA and immunostained with anti-LC3 antibody (clone PM036, MBL labs). Cells were counterstained by DAPI and Cell Mask Blue, imaged and analyzed as described above.
Autophagy is a key process regulated by mTOR (Laplante and Sabatini, 2012) and a known mediator of intracellular mycobacterial survival (Gutierrez et al., 2004; Kumar et al., 2010). The integration approach predicted that compounds from E1, but not E2, modulate autophagy. To test it, HeLa cells were treated with the compounds, immunostained for the autophagosome marker LC3 and multiple parameters reporting diverse facets of autophagosomes were extracted (Table 3). […] Of the three compounds validated in intracellular mycobacterial killing, Nortriptyline and PE belong to sub-cluster E1 whereas Haloperidol belongs to E2.

M. bovis BCG-GFP [1] = assay type: cell-based; settings: 10µM, 4 days plus 24hr with alamar blue
[2] = tested on: A431 cells stably expressing GFP-Rab5; experiment: Live cell imaging of endosome motility; assay type: cell-based; settings: 10µM, 2 hr
HeLa BAC GFP-Rab5c = experiment: Cell-based LDL trafficking assay; set-up: species or system human
M. bovis BCG-GFP [3] = assay type: cell-based
M. bovis BCG-GFP [4] = assay type: cell-based; settings: for pattern-specific score (PSS): 10µM, 48 hr
M. bovis BCG-GFP [5] = assay type: cell-based; remark: listed apart in the source
[6] = tested on: HeLa cells stably expressing mRFP-GFP-LC3; assay type: cell-based, human; settings: for mRFP to GFP co-localisation: 2 hr, N and PE 10µM, Chloroquine 25 µM, BafilomycinA1 100nM; for co-localisation of mRFP and GFP over time: different periods of time
Experimental: Second, an established assay was used for measuring autophagic flux based on a tandem mRFP-GFP-LC3 construct (Kimura et al., 2007). Since GFP is quenched in the acidic environment of autophagolysosomes whereas mRFP remains stable, agents blocking autophagy flux display higher colocalization of mRFP and GFP compared to those inducing autophagy. HeLa cells stably expressing mRFP-GFP-LC3 (Settembre et al., 2011) were treated with the compounds and the co-localization between mRFP and GFP was quantified. […] Similar results were obtained for the co-localisation of LC3-GFP with LBPA in HeLa-LC3-GFP cells (Figure 12D).
The increased acidification by PE is in apparent contradiction with the inhibition of autophagic flux. To solve this discrepancy, HeLa cells stably expressing mRFP-GFP- -LC3 were treated with the compounds for different periods of time.

HeLa BAC LC3-GFP = assay type: cell-based, human
LC3 = settings: for LC3-II band: 10 µM; for additive effects of BafilomycinA1 on LC3-II band: 10 µM with BafilomycinA1 100nM

O=C(CCCN1CCC(O)(c2ccc(Cl)cc2)CC1)c1ccc(F)cc1 [Haloperidol, 4-[4-(4-chlorophenyl)-4-hydroxy-1-piperidyl]-1-(4-fluorophenyl)-butan-1-one]
effect on autophagy (HeLa cells): did not
effect in the alamar blue screen (M. bovis BCG-GFP [1]): lack of effect
mean square displacement of endosomes [2]: long, but not short, time-scale movements of GFP-Rab5 endosomes were significantly accelerated
motility of early endosomes [2]: much higher motility of early endosomes harboring high levels of Rab5
intensity of LDL in early and late endosomes (HeLa BAC GFP-Rab5c; 10µM, LDL pulse for different times): significantly increased the intensity of LDL in late, but not early endosomes
size, number and position of LDL-containing late endosomes (HeLa BAC GFP-Rab5c; 10 µM, late, but not early endosomes): larger, more numerous and closer to the cell centre
bacteriostatic activity on M. bovis BCG-GFP at neutral and acidic pH (M. bovis BCG-GFP [3]; 10 µM): did not show bacteriostatic activity
phenotype (phenotypic profile) in mycobacteria high content screen (M. bovis BCG-GFP [4]): reduced bacterial intensity, fewer bacteria and infected cells

CSc1ccc2c(c1)C(N1CCN(C)CC1)Cc1ccccc1S2.O=C(O)/C=C\C(=O)O (centres unmarked) [METHIOTHEPIN MALEATE]
pattern-specific score (PSS) (M. bovis BCG-GFP [4]): 0.9941

TOTAROL ACETATE
pattern-specific score (PSS) (M. bovis BCG-GFP [4]): 0.7904

C[C@@H]1CC[C@@]2(OC1)O[C@H]1C[C@H]3[C@@H]4CC[C@@H]5C[C@@H](O)CC[C@]5(C)[C@H]4CC[C@]3(C)[C@H]1[C@@H]2C [SMILAGENIN]
pattern-specific score (PSS) (M. bovis BCG-GFP [4]): 0.7198

CNCCC=C1c2ccccc2CCc2ccccc21 [Nortriptyline, 3-(10,11-dihydro-5H-dibenzo[a,d]cyclohepten-5-ylidene)-N-methyl-1-propanamine]
effect on autophagy (HeLa cells): strong effect on autophagy
synergy with IFN-γ on mycobacterial survival (M. bovis BCG-GFP [5]): synergized strongly with IFN-γ
effect in the alamar blue screen (M. bovis BCG-GFP [1]): lack of effect
mRFP to GFP co-localisation [6]: low mRFP to GFP co-localisation
additive effect with BafilomycinA1 and Chloroquine in increasing LC3-GFP vesicles (HeLa BAC LC3-GFP): had an additive effect
bacteriostatic activity on M. bovis BCG-GFP at neutral and acidic pH (M. bovis BCG-GFP [3]): did not show bacteriostatic activity
phenotype (phenotypic profile) in mycobacteria high content screen (M. bovis BCG-GFP [4]): reduced bacterial intensity, fewer bacteria and infected cells
LC3-II band (LC3): significant increase in the LC3-II band
additive effects of BafilomycinA1 on LC3-II band (LC3): additive effects of BafilomycinA1 were seen

TRIMEPRAZINE TARTRATE
pattern-specific score (PSS) (M. bovis BCG-GFP [4]): 1

CO/C1=C\C(C)=C\[C@@H](C)[C@@H](O)[C@@H](C)C/C(C)=C/C=C/[C@H](OC)[C@@H]([C@@H](C)[C@@H](O)[C@H](C)[C@@]2(O)C[C@@H](O)[C@H](C)[C@@H](C(C)C)O2)OC1=O [BafilomycinA1]
mRFP to GFP co-localisation [6]: higher co-localisation
co-localisation of mRFP and GFP over time [6]: increased over time

CC([C@H](O)c1ccccc1)N(C)C (stereo partly drawn) [N-METHYL (-)EPHEDRINE]
pattern-specific score (PSS) (M. bovis BCG-GFP [4]): 0.8936

CCN(CC)CCCC(C)Nc1ccnc2cc(Cl)ccc12 (centres unmarked) [Chloroquine]
mRFP to GFP co-localisation [6]: higher co-localisation
co-localisation of mRFP and GFP over time [6]: increased over time

CO/N=C(\C(=O)N[C@@H]1C(=O)N2C(C(=O)OCOC(=O)C(C)(C)C)=C(/C=C\c3scnc3C)CS[C@H]12)c1csc(N)n1 [CEFDITORIN PIVOXIL]
pattern-specific score (PSS) (M. bovis BCG-GFP [4]): 0.8626

CN1CCN(CCCN2c3ccccc3Sc3ccc(Cl)cc32)CC1 [Prochlorperazine edisylate, 2-chloro-10-[3-(4-methyl-1-piperazinyl)propyl]-10H-phenothiazine]
effect on autophagy (HeLa cells): strong effect on autophagy
synergy with IFN-γ on mycobacterial survival (M. bovis BCG-GFP [5]): much weaker effect
effect in the alamar blue screen (M. bovis BCG-GFP [1]): lack of effect
mRFP to GFP co-localisation [6]: higher co-localisation
co-localisation of mRFP and GFP over time [6]: increased within the first hr but then progressively decreased
additive effect with BafilomycinA1 and Chloroquine in increasing LC3-GFP vesicles (HeLa BAC LC3-GFP; 10 µM, 4 hours, Chloroquine 25 µM, BafilomycinA1 100nM): not
bacteriostatic activity on M. bovis BCG-GFP at neutral and acidic pH (M. bovis BCG-GFP [3]; 10 µM): did not show bacteriostatic activity
phenotype (phenotypic profile) in mycobacteria high content screen (M. bovis BCG-GFP [4]): reduced bacterial intensity, fewer bacteria and infected cells
LC3-II band (LC3): significant increase in the LC3-II band
additive effects of BafilomycinA1 on LC3-II band (LC3): not

CN1CCc2c(c3ccccc3n2Cc2ccccc2)C1.CN1CCc2c(c3ccccc3n2Cc2ccccc2)C1.O=S(=O)(O)c1cccc2c(S(=O)(=O)O)cccc12 [MEBHYDROLIN NAPHTHALENESULFONATE]
pattern-specific score (PSS) (M. bovis BCG-GFP [4]): 0.9999

OC[C@@H](O)[C@@H](OC1O[C@H](CO)[C@@H](O)[C@H](O)[C@H]1O)[C@H](O)[C@@H](O)CO (some centres unmarked) [GLUCITOL-4-GUCOPYANOSIDE]
pattern-specific score (PSS) (M. bovis BCG-GFP [4]): 0.8836

O=S(=O)(NCCNC/C=C/c1ccc(Br)cc1)c1cccc2cnccc12 [H89]
pattern-specific score (PSS) (M. bovis BCG-GFP [4]): 0.9636

Cn1cnc(N)c2ncnc1-2 [3-MA, 3-Methyl Adenine]
effect of 3-MA on action of Nortriptyline on mycobacterial survival (M. bovis BCG-GFP [4]): reverted the effect of Nortriptyline on mycobacterial survival

CN(C)c1nc(N)c(C(=O)N=C(N)N)nc1Cl [N;N-DIMETHYLAMILORIDE]
pattern-specific score (PSS) (M. bovis BCG-GFP [4]): 0.5976

O=c1cc(-c2cc(O)c(O)c(O)c2)oc2cc(O)cc(O)c12 [HIERACIN]
pattern-specific score (PSS) (M. bovis BCG-GFP [4]): 0.3164

COc1cc2c3cc1Oc1cc(ccc1O)C[C@@H]1c4c(cc(OC)c(O)c4Oc4ccc(cc4)C[C@@H]3N(C)CC2)CC[N+]1(C)C.Cl.O.O.O.O.O.[Cl-] [TUBOCURARINE CHLORIDE]
pattern-specific score (PSS) (M. bovis BCG-GFP [4]): 0.7944

NC(C(=O)O)C(O)C(=O)O [D;L-THREO-3-HYDROXYASPARTIC ACID]
pattern-specific score (PSS) (M. bovis BCG-GFP [4]): 0.8004

COc1cc2c(cc1OC)C1(O)C(=O)c3ccc(O)c(C(=O)O)c3OC1CO2 (centres unmarked) [12A-HYDROXY-9-DEMETHYLMUNDUSERONE-8-CARBOXYLIC ACID]
pattern-specific score (PSS) (M. bovis BCG-GFP [4]): 0.8387

CC1(C)CC2C1CCC1(C)OC2(C)CCC1O (centres unmarked) [3;7-EPOXYCARYOPHYLLAN-6-OL]
pattern-specific score (PSS) (M. bovis BCG-GFP [4]): 0.7194
